# Measurements reported in PubChem BioAssay AID1117327 (Cheminformatics & Chemogenomics Research Group (CCRG), …, 2015).
# Where “and” joins values, the source holds several entries; their conditions need not be identical. Equal entries are not always repeated. Calls of active or inactive are those of the source. The rule behind the calls is not given here. Starred links: 1 amine or outer side, 2 acyl side, 3 side chain; linkers in the order of their positions; H or OH if unused. Positions of bridges follow the written chain, without caps; N, C: chain ends. Non-standard residues stand in square brackets, D forms with d. Residues, ends and D or L forms follow the SMILES beside them. Chains are numbered I, II in the order given. Actinocin(9to1) = Cc1c2oc3c(C)ccc(C(=O)[*:1])c3nc-2c(C(=O)[*:2])c(N)c1=O; NMeV = CN[C@H](C(=O)O)C(C)C; Sar = CNCC(=O)O
# System: C2C12 + WNT3A conditioned medium, alkaline phosphatase
# Assay: alkaline phosphatase induction in C2C12 cells, dose response, cell-based, WNT3A-conditioned medium (AID 1117327)
row,Compound,IC50
1,CC[C@]1(O)C[C@@H]2CN(CCc3c([nH]c4ccccc34)[C@@](C(=O)OC)(c3cc4c(cc3OC)N(C)[C@H]3[C@@](O)(C(=O)OC)[C@H](OC(C)=O)[C@]5(CC)C=CCN6CC[C@]43[C@@H]65)C2)C1,> 20 µM (inactive) and 8.9 nM
2,CC(C)C[C@H](NC(=O)[C@H](CCc1ccccc1)NC(=O)CN1CCOCC1)C(=O)N[C@@H](Cc1ccccc1)C(=O)N[C@@H](CC(C)C)C(=O)[C@@]1(C)CO1,15.2 nM
3,CC(=O)Oc1ccc(C2(c3ccc(OC(C)=O)cc3)Oc3ccccc3NC2=O)cc1,14000 nM (inactive)
4,CSc1ccc2c(c1)C(N1CCN(C)CC1)Cc1ccccc1S2 (centres undefined),> 20000 nM (inactive)
5,COC(=O)[C@H]1[C@H]2C[C@@H]3c4[nH]c5cc(OC)ccc5c4CCN3C[C@H]2C[C@@H](OC(=O)/C=C/c2ccc(O)c(OC)c2)[C@@H]1OC,10400 nM (inactive)
6,CN(C)CCCN1c2ccccc2Sc2ccc(C(F)(F)F)cc21,> 20000 nM (inactive)
7,Cc1nc(N)nc(N)c1-c1ccc(Cl)c(Cl)c1,29.9 nM
8,NC(=NCCCCCCN=C(N)/N=C(\N)Nc1ccc(Cl)cc1)/N=C(\N)Nc1ccc(Cl)cc1,> 20000 nM (inactive)
9,CCN(CC)CCNc1ccc(CO)c2sc3ccccc3c(=O)c12,2670 nM
10,CCCCCCCCCCCCCC[N+](C)(C)C,> 20000 nM (inactive)
11,CC(=O)[C@]1(O)Cc2c(O)c3c(c(O)c2[C@@H](O[C@H]2C[C@H](N)[C@H](O)[C@H](C)O2)C1)C(=O)c1ccccc1C3=O,504 nM
12,COc1cccc2c1C(=O)c1c(O)c3c(c(O)c1C2=O)C[C@@](O)(C(=O)CO)C[C@@H]3O[C@H]1C[C@H](N)[C@H](O[C@@H]2CCCCO2)[C@H](C)O1,3950 nM
13,CCCCC1C(=O)N(c2ccccc2)N(c2ccc(O)cc2)C1=O (centres undefined),4920 nM
14,Cc1ccc2nc(N)[nH]c(=O)c2c1Sc1ccncc1,244 nM
15,Cc1cc(C2CCCCC2)n(O)c(=O)c1,1050 nM
16,Cc1nc(Nc2ncc(C(=O)Nc3c(C)cccc3Cl)s2)cc(N2CCN(CCO)CC2)n1,6.7 nM
17,CC[C@@]1(O)C(=O)OCc2c1cc1n(c2=O)Cc2cc3c(CN(C)C)c(O)ccc3nc2-1,17.9 nM
18,O=C(CCl)c1ccc(Cl)cc1Cl,> 20000 nM (inactive)
19,Cc1ccc([N+](=O)[O-])[c]2c1[O][Hg]2,155 nM
20,COc1ccc2cc1Oc1ccc(cc1)C[C@H]1c3c(cc4c(c3Oc3cc5c(cc3OC)CCN(C)[C@@H]5C2)OCO4)CCN1C,2050 nM
21,C[n+]1c2cc(N)ccc2cc2ccc(N)cc21 (tested in a mixture with another compound),1600 nM

row,Compound,IC50
1,Cc1cc(CC(C)CC(C)(C)C)n(O)c(=O)c1 (centres undefined),> 20000 nM (inactive)
2,O=C1c2c(O)ccc(O)c2C(=O)c2c(NCCNCCO)ccc(NCCNCCO)c21,1510 nM
3,O=[N+]([O-])c1ccc(O)c2ncccc12,6360 nM (inactive)
4,COC(=O)Nc1nc2ccc(C(=O)C3CC3)cc2[nH]1,684 nM
5,Oc1c(I)cc(Cl)c2cccnc12,5400 nM (inactive)
6,CCCN(CCC)C(=O)C(CCC(=O)OCCCN1CCN(CCOC(=O)Cc2c(C)n(C(=O)c3ccc(Cl)cc3)c3ccc(OC)cc23)CC1)NC(=O)c1ccccc1 (centres undefined),13200 nM (inactive)
7,COC(=O)Nc1nc2ccc(S(=O)c3ccccc3)cc2[nH]1 (centres undefined),559 nM
8,CCCCCCCCCCCCNCCNCCNCC(=O)O,> 20000 nM (inactive)
9,Cc1cc(O)c2ccccc2c1O,1750 nM
10,CCC1=C[C@@H]2CN(C1)Cc1c([nH]c3ccccc13)[C@@](C(=O)OC)(c1cc3c(cc1OC)N(C)[C@H]1[C@@](O)(C(=O)OC)[C@H](OC(C)=O)[C@]4(CC)C=CCN5CC[C@]31[C@@H]54)C2,10.1 nM
11,Cc1cc2c(C(C)C)c(O)c(O)c(C=O)c2c(O)c1-c1c(C)cc2c(C(C)C)c(O)c(O)c(C=O)c2c1O,> 20000 nM (inactive)
12,CCCCCCCCCCCCCC[N+](C)(C)Cc1ccccc1,> 20000 nM (inactive)
13,NC(N)=NN=C(/C=C/c1ccc([N+](=O)[O-])o1)/C=C/c1ccc([N+](=O)[O-])o1,372 nM
14,"Cc1c2oc3c(C)ccc(C(=O)N[C@@H]4C(=O)N[C@H](C(C)C)C(=O)N5CCC[C@H]5C(=O)N(C)CC(=O)N(C)[C@@H](C(C)C)C(=O)O[C@@H]4C)c3nc-2c(C(=O)N[C@@H]2C(=O)N[C@H](C(C)C)C(=O)N3CCC[C@H]3C(=O)N(C)CC(=O)N(C)[C@@H](C(C)C)C(=O)O[C@@H]2C)c(N)c1=O (I: T[dV]P[Sar][NMeV] / II: T[dV]P[Sar][NMeV]; ester I:1-I:C, II:1-II:C; linker I:N-II:N via Actinocin(9to1))",1.5 nM
15,Cc1nc2ccc(CN(C)c3ccc(C(=O)N[C@@H](CCC(=O)O)C(=O)O)s3)cc2c(=O)[nH]1,4.2 nM
16,COCc1c(C(C)C)nc(C(C)C)c(/C=C/[C@@H](O)C[C@@H](O)CC(=O)O)c1-c1ccc(F)cc1,> 20000 nM (inactive)
17,CCCCCCNC(=O)n1cc(F)c(=O)[nH]c1=O,5550 nM (inactive)
18,CN1C[C@H](CNC(=O)OCc2ccccc2)C[C@@H]2c3cccc4c3c(cn4C)C[C@H]21,> 20000 nM (inactive)
19,CCCOc1ccc2nc(NC(=O)OC)[nH]c2c1,88.1 nM
20,O=c1c(-c2ccccc2)c1-c1ccccc1,3620 nM
21,C[C@@]12C(=O)OC(=O)[C@]1(C)C1CCC2O1,1490 nM

row,Compound,IC50
1,CCCCCCCCCCOCC(O)CN (centres undefined),> 20000 nM (inactive)
2,COc1cc([C@@H]2c3cc4c(cc3[C@H](O)[C@H]3COC(=O)[C@H]23)OCO4)cc(OC)c1OC,9.1 nM
3,CC[C@]1(O)C[C@H]2CN(CCc3c([nH]c4ccccc34)[C@@](C(=O)OC)(c3cc4c(cc3OC)N(C=O)[C@H]3[C@@](O)(C(=O)OC)[C@H](OC(C)=O)[C@]5(CC)C=CCN6CC[C@]43[C@@H]65)C2)C1,5.1 nM
4,CC[C@@H]([C@H](C)O)n1ncn(-c2ccc(N3CCN(c4ccc(OC[C@@H]5CO[C@@](Cn6cncn6)(c6ccc(F)cc6F)C5)cc4)CC3)cc2)c1=O,1630 nM
5,O=C1OC2(c3cc(Br)c(O)cc3Oc3c2cc(Br)c(O)[c]3[Hg])c2ccccc21 (centres undefined),> 20000 nM (inactive)
6,CN1CC[C@H](c2c(O)cc(O)c3c(=O)cc(-c4ccccc4Cl)oc23)[C@H](O)C1,461 nM
7,c1ccc2c(c1)Sc1ccccc1N2CC1CN2CCC1CC2 (centres undefined),> 20000 nM (inactive)
8,OCCN1CCN(CCCN2c3ccccc3Sc3ccc(Cl)cc32)CC1,> 20000 nM (inactive)
9,COc1cccc2c1C(=O)c1c(O)c3c(c(O)c1C2=O)C[C@@](O)(C(=O)CO)CC3OC1CC(N2CCOC(OC)C2)C(O)C(C)O1 (some centres undefined),> 20000 nM (inactive)
10,O=[N+]([O-])C(Br)(CO)CO,> 20000 nM (inactive)
11,O=C(Nc1ccc([N+](=O)[O-])cc1Cl)c1cc(Cl)ccc1O,> 20000 nM (inactive)
12,CCCCCCCCCCCCCCC[C@H](O)[C@@H](N)CO,> 20000 nM (inactive)
13,CC(C)(C)C(=O)OCOP(=O)(COCCn1cnc2c(N)ncnc21)OCOC(=O)C(C)(C)C,387 nM
14,COc1cc(NCc2ccc3nc(N)nc(N)c3c2C)cc(OC)c1OC,> 20000 nM (inactive)
15,O=C1C2CC=CCC2C(=O)N1SC(Cl)(Cl)Cl (centres undefined),511 nM
16,COc1cc([C@@H]2c3cc4c(cc3[C@@H](O[C@@H]3O[C@@H]5CO[C@@H](C)O[C@@H]5[C@H](O)[C@@H]3O)[C@H]3COC(=O)[C@H]23)OCO4)cc(OC)c1O,> 20000 nM (inactive)
17,C#C[C@]1(O)CC[C@H]2[C@@H]3CCc4cc(OC5CCCC5)ccc4[C@H]3CC[C@@]21C,> 20000 nM (inactive)
18,CCc1nc(N)nc(N)c1-c1ccc(Cl)cc1,67.7 nM
19,COc1cccc2c1C(=O)c1c(O)c3c(c(O)c1C2=O)C[C@@](O)(C(C)=O)C[C@@H]3O[C@H]1C[C@H](N)[C@H](O)[C@H](C)O1,6.1 nM
20,CN(Cc1cnc2nc(N)nc(N)c2n1)c1ccc(C(=O)N[C@@H](CCC(=O)O)C(=O)O)cc1,11.6 nM
21,CN(C)C(=S)SSC(=S)N(C)C,> 20000 nM (inactive)

row,Compound,IC50
1,C=CC(=O)Nc1cc2c(Nc3ccc(F)c(Cl)c3)ncnc2cc1OCCCN1CCOCC1,9460 nM (inactive)
2,Clc1cc(Cl)c(OCC#CI)cc1Cl,> 20000 nM (inactive)
3,Cc1ccccc1C(=O)Nc1ccc(C(=O)N2CCCC(N(C)C)c3ccccc32)cc1 (centres undefined),9980 nM (inactive)
4,[O-][n+]1ccccc1SSc1cccc[n+]1[O-],131 nM
5,COC(=O)c1nc(Cl)c(Cl)nc1N,157 nM
6,O=C1C(I)=CC(=C(c2cc(I)c(O)c(I)c2)c2ccccc2C(=O)O)C=C1I,> 20000 nM (inactive)
7,COC(=O)Nc1nc2ccc(C(=O)c3ccccc3)cc2[nH]1,245 nM
8,CCCCCCCCCCCC(=O)[O][Sn]([CH2]CCC)([CH2]CCC)[O]C(=O)CCCCCCCCCCC,> 20000 nM (inactive)
9,CC[C@@]1(O)C(=O)OCc2c1cc1n(c2=O)Cc2c-1nc1ccccc1c2/C=N/OC(C)(C)C,3.2 nM
10,CCCCc1ccc2nc(NC(=O)OC)[nH]c2c1,68.2 nM
11,Nc1ccc2cc3ccc(N)cc3nc2c1,> 20000 nM (inactive)
12,C=C(C)[C@H]1Cc2c(ccc3c2O[C@@H]2COc4cc(OC)c(OC)cc4[C@@H]2C3=O)O1,254 nM
13,COc1cc(C=C2CCC/C(=C\c3ccc(O)c(OC)c3)C2=O)ccc1O,> 20000 nM (inactive)
14,COC(=O)Nc1nc2ccc(C(=O)c3cccs3)cc2[nH]1,43.4 nM
15,Oc1c(Cl)cc(Cl)cc1Sc1cc(Cl)cc(Cl)c1O,> 20000 nM (inactive)
16,Cc1ccc2c(Br)cc(Br)c(O)c2n1,> 20000 nM (inactive)
17,Cc1cc(=O)c2c(O)c3c(O)cc(=O)c4c3c3c(cc(O)c1c23)C(C)(C)C=4O,2910 nM
18,O[C@@H](c1cc(C(F)(F)F)nc2c(C(F)(F)F)cccc12)[C@H]1CCCCN1,> 20000 nM (inactive)
19,CCCSc1ccc2nc(NC(=O)OC)[nH]c2c1,12300 nM (inactive)
20,COC(=O)Nc1nc2ccc(Sc3ccccc3)cc2[nH]1,438 nM
21,CN(C)c1ccc(C(=C2C=CC(=[N+](C)C)C=C2)c2ccccc2)cc1,363 nM
